In patent US20250281424A1 (New York Blood Center, Inc, priority 2020, published 2025):

Biological target: T1, human PF4 (Homo sapiens, UniProt P02776)
T1 construct: PF4 is a 70 amino acid, lysine-rich 7.8 kDa platelet-specific protein; made in house; host or cells: Escherichia coli BL21DE3 pLysS (pT7-7) and/or Drosophila S2 cells
T1 sequence (P02776 32-101): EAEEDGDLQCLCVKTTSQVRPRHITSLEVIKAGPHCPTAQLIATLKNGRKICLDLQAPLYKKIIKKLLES
Test: Inhibition of PF4 tetramer formation (BS3 cross-linking, SDS-PAGE)
Format: biochemical
Conditions: for inhibition at 5 µM: 5 μM inhibitor; for inhibition at 5 µM / inhibition at 10 µM / inhibition at 1 µM / inhibition at 3 µM: read-out: % inhibition of PF4 tetramer formation at single concentration of inhibitor; for inhibition at 10 µM: 10 μM inhibitor (column A); for IC50: read-out: IC50 of PF4 tetramer formation inhibition; for inhibition at 1 µM: 1 μM inhibitor; for inhibition at 3 µM: 3 μM inhibitor (column A)
Outline: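 Recombinant human wild-type PF4 (E. coli-expressed, heparin-purified), 10 μg/ml in PBS, incubated with compound 15 min at 37° C or 60 min at room temperature, then cross-linked with 0.2 mM BS3 for 30 min at room temperature. Reducing 12% SDS-PAGE; bands quantified as % tetramer, trimer, dimer, monomer versus compound-free control.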

Structure (SMILES) | inhibition at 5 µM | inhibition at 10 µM | IC50 | inhibition at 1 µM | inhibition at 3 µM
O=C(O)CNC(=O)C1C(=O)c2ccc(Oc3ccc4c(c3)C(=O)C(C(=O)NCC(=O)O)C4=O)cc2C1=O (stereo not drawn) [Example 307, 2-{[5-({2-[(carboxymethyl)carbamoyl]-1,3-dioxo-2,3-dihydro-1H-inden-5-yl}oxy)-1,3-dioxo-2,3-dihydro-1H-inden-2-yl]formamido}acetic acid] | – | – | – | 15% | 47%
COC(=O)c1ccccc1NC(=O)C1C(=O)c2ccc(S(=O)(=O)c3ccc4c(c3)C(=O)C(C(=O)Nc3ccccc3C(=O)OC)C4=O)cc2C1=O (stereo not drawn) [Example 97, methyl 2-{5-[(2-{[2-(methoxycarbonyl)phenyl]carbamoyl}-1,3-dioxo-2,3-dihydro-1H-inden-5-yl)sulfonyl]-1,3-dioxo-2,3-dihydro-1H-indene-2-amido}benzoate] | 100% | 100% | 8.9 µM | – | –
CC(C)OCC(=O)C1C(=O)c2ccc(Oc3ccc4c(c3)C(=O)C(C(=O)COC(C)C)C4=O)cc2C1=O (stereo not drawn) [Example 378, 5-({1,3-dioxo-2-[2-(propan-2-yloxy)acetyl]-2,3-dihydro-1H-inden-5-yl}oxy)-2-[2-(propan-2-yloxy)acetyl]-2,3-dihydro-1H-indene-1,3-dione] | – | – | – | 39% | 69%
CO[C@@H](C)C(=O)C1C(=O)c2ccc(C(=O)c3ccc4c(c3)C(=O)C(C(=O)[C@H](C)OC)C4=O)cc2C1=O (stereo partly drawn) [Example 236, 2-[(2S)-2-methoxypropanoyl]-5-{2-[(2S)-2-methoxypropanoyl]-1,3-dioxo-2,3-dihydro-1H-indene-5-carbonyl}-2,3-dihydro-1H-indene-1,3-dione] | – | – | – | 20% | 25%
COC(=O)c1ccc(NC(=O)C2C(=O)c3ccc(S(=O)(=O)c4ccc5c(c4)C(=O)C(C(=O)Nc4ccc(C(=O)OC)cc4)C5=O)cc3C2=O)cc1 (stereo not drawn) [Example 98, methyl 4-{5-[(2-{[4-(methoxycarbonyl)phenyl]carbamoyl}-1,3-dioxo-2,3-dihydro-1H-inden-5-yl)sulfonyl]-1,3-dioxo-2,3-dihydro-1H-indene-2-amido}benzoate] | 100% | 100% | – | – | –
O=C(NC1CC1)C1C(=O)c2ccc(C#Cc3ccc4c(c3)C(=O)C(C(=O)NC3CC3)C4=O)cc2C1=O (stereo not drawn) [Example 300, N-cyclopropyl-5-{2-[2-(cyclopropylcarbamoyl)-1,3-dioxo-2,3-dihydro-1H-inden-5-yl]ethynyl}-1,3-dioxo-2,3-dihydro-1H-indene-2-carboxamide] | – | – | – | 22% | 32%
CCC(=O)C1C(=O)c2ccc(C(=O)c3ccc4c(c3)C(=O)C(C(=O)CC)C4=O)cc2C1=O (stereo not drawn) [Example 324, 5-(1,3-dioxo-2-propanoyl-2,3-dihydro-1H-indene-5-carbonyl)-2-propanoyl-2,3-dihydro-1H-indene-1,3-dione] | – | 35% | – | – | –
CC[C@H](NC(=O)OCc1ccccc1)C(=O)C1C(=O)c2ccc(S(=O)(=O)c3ccc4c(c3)C(=O)C(C(=O)[C@H](CC)NC(=O)OCc3ccccc3)C4=O)cc2C1=O (stereo partly drawn) [Example 166] | 59% | 84% | 3.4 µM | – | –
C[C@H](NC(=O)OC(C)(C)C)C(=O)C1C(=O)c2ccc(S(=O)(=O)c3ccc4c(c3)C(=O)C(C(=O)[C@H](C)NC(=O)OC(C)(C)C)C4=O)cc2C1=O (stereo partly drawn) [Example 180, tert-butyl N-[(2S)-1-[5-({2-[(2S)-2-{[(tert-butoxy)carbonyl]amino}propanoyl]-1,3-dioxo-2,3-dihydro-1H-inden-5-yl}sulfonyl)-1,3-dioxo-2,3-dihydro-1H-inden-2-yl]-1-oxopropan-2-yl]carbamate] | 73% | 90% | ~6 µM | – | –
CSCC(=O)C1C(=O)c2ccc(Oc3ccc4c(c3)C(=O)C(C(=O)CSC)C4=O)cc2C1=O (stereo not drawn) [Example 280, 2-[2-(methylsulfanyl)acetyl]-5-({2-[2-(methylsulfanyl)acetyl]-1,3-dioxo-2,3-dihydro-1H-inden-5-yl}oxy)-2,3-dihydro-1H-indene-1,3-dione] | – | – | 3 µM | 23% | 43%
CSCCC(=O)C1C(=O)c2ccc(S(=O)(=O)c3ccc4c(c3)C(=O)C(C(=O)CCSC)C4=O)cc2C1=O (stereo not drawn) [Example 278, 2-[3-(methylsulfanyl)propanoyl]-5-({2-[3-(methylsulfanyl)propanoyl]-1,3-dioxo-2,3-dihydro-1H-inden-5-yl}sulfonyl)-2,3-dihydro-1H-indene-1,3-dione] | – | – | 3 µM | 1% | 18%
COCCOCCN(CC(=O)C1C(=O)c2ccc(S(=O)(=O)c3ccc4c(c3)C(=O)C(C(=O)CN(CCOCCOC)C(=O)OC(C)(C)C)C4=O)cc2C1=O)C(=O)OC(C)(C)C (stereo not drawn) [Example 392, tert-butyl N-{2-[5-({2-[2-(11,11-dimethyl-9-oxo-2,5,10-trioxa-8-azadodecan-8-yl)acetyl]-1,3-dioxo-2,3-dihydro-1H-inden-5-yl}sulfonyl)-1,3-dioxo-2,3-dihydro-1H-inden-2-yl]-2-oxoethyl}-N-[2-(2-methoxyethoxy)ethyl]carbamate] | – | – | – | 1% | 1%
CC(C)(C)OC(=O)NCC(=O)C1C(=O)c2ccc(C(c3ccc4c(c3)C(=O)C(C(=O)CNC(=O)OC(C)(C)C)C4=O)(C(F)(F)F)C(F)(F)F)cc2C1=O (stereo not drawn) [Example 228, tert-butyl N-[2-(5-{2-[2-(2-{[(tert-butoxy)carbonyl]amino}acetyl)-1,3-dioxo-2,3-dihydro-1H-inden-5-yl]-1,1,1,3,3,3-hexafluoropropan-2-yl}-1,3-dioxo-2,3-dihydro-1H-inden-2-yl)-2-oxoethyl]carbamate] | – | – | 2.8 µM | – | –
CCCCc1ccc(NC(=O)C2C(=O)c3ccc(C(=O)c4ccc5c(c4)C(=O)C(C(=O)Nc4ccc(CCCC)cc4)C5=O)cc3C2=O)cc1 (stereo not drawn) [Example 101, N-(4-butylphenyl)-5-{2-[(4-butylphenyl)carbamoyl]-1,3-dioxo-2,3-dihydro-1H-indene-5-carbonyl}-1,3-dioxo-2,3-dihydro-1H-indene-2-carboxamide] | 80% | 71% | – | – | –

The next lines start with the values.

inhibition at 5 µM | inhibition at 10 µM | IC50 | inhibition at 1 µM | inhibition at 3 µM | Structure (SMILES)
87% | 97% | 7 µM | – | – | O=C(Cn1cccn1)C1C(=O)c2ccc(S(=O)(=O)c3ccc4c(c3)C(=O)C(C(=O)Cn3cccn3)C4=O)cc2C1=O (stereo not drawn) [Example 139, 5-({1,3-dioxo-2-[2-(1H-pyrazol-1-yl)acetyl]-2,3-dihydro-1H-inden-5-yl}sulfonyl)-2-[2-(1H-pyrazol-1-yl)acetyl]-2,3-dihydro-1H-indene-1,3-dione]
– | – | 1.1 µM | 29% | 100% | COCCOCCNC(=O)C1C(=O)c2ccc(S(=O)(=O)c3ccc4c(c3)C(=O)C(C(=O)NCCOCCOC)C4=O)cc2C1=O (stereo not drawn) [Example 295, N-[2-(2-methoxyethoxy)ethyl]-5-[(2-{[2-(2-methoxyethoxy)ethyl]carbamoyl}-1,3-dioxo-2,3-dihydro-1H-inden-5-yl)sulfonyl]-1,3-dioxo-2,3-dihydro-1H-indene-2-carboxamide]
27% | 46% | – | – | – | O=C(c1ccc2c(c1)C(=O)C(C(=O)NC1CC1)C2=O)c1ccc2c(c1)C(=O)C(C(=O)NC1CC1)C2=O (stereo not drawn) [Example 21, 5,5′-carbonylbis(1,3-dioxo-indan-2-carboxylic acid (cyclopropyl)-amide)]
– | – | – | 28% | 43% | O=C(CN1CCCC1=O)C1C(=O)c2ccc(C#Cc3ccc4c(c3)C(=O)C(C(=O)CN3CCCC3=O)C4=O)cc2C1=O (stereo not drawn) [Example 293, 5-(2-{1,3-dioxo-2-[2-(2-oxopyrrolidin-1-yl)acetyl]-2,3-dihydro-1H-inden-5-yl}ethynyl)-2-[2-(2-oxopyrrolidin-1-yl)acetyl]-2,3-dihydro-1H-indene-1,3-dione]
– | – | ~1 µM | – | – | O=C(Nc1ccccc1)C1C(=O)c2ccc(S(=O)(=O)c3ccc4c(c3)C(=O)C(C(=O)Nc3ccccc3)C4=O)cc2C1=O (stereo not drawn) [Example 37, 5,5′-sulphonylbis(1,3-dioxo-indan-2-carboxylic acid (phenyl)-amide)]
68% | 59% | – | – | – | O=C(NC1CCCC1)C1C(=O)c2ccc(C(c3ccc4c(c3)C(=O)C(C(=O)NC3CCCC3)C4=O)(C(F)(F)F)C(F)(F)F)cc2C1=O (stereo not drawn) [Example 109, N-cyclopentyl-5-{2-[2-(cyclopentylcarbamoyl)-1,3-dioxo-2,3-dihydro-1H-inden-5-yl]-1,1,1,3,3,3-hexafluoropropan-2-yl}-1,3-dioxo-2,3-dihydro-1H-indene-2-carboxamide]
– | – | – | 26% | 32% | CC(C)C[C@@H](N)C(=O)C1C(=O)c2ccc(C(=O)c3ccc4c(c3)C(=O)C(C(=O)[C@H](N)CC(C)C)C4=O)cc2C1=O (stereo partly drawn) [Example 354, 2-[(2R)-2-amino-4-methylpentanoyl]-5-{2-[(2R)-2-amino-4-methylpentanoyl]-1,3-dioxo-2,3-dihydro-1H-indene-5-carbonyl}-2,3-dihydro-1H-indene-1,3-dione]
– | – | – | 2% | 13% | COCCOCC(=O)C1C(=O)c2ccc(C(=O)c3ccc4c(c3)C(=O)C(C(=O)COCCOC)C4=O)cc2C1=O (stereo not drawn) [Example 395, 2-[2-(2-methoxyethoxy)acetyl]-5-{2-[2-(2-methoxyethoxy)acetyl]-1,3-dioxo-2,3-dihydro-1H-indene-5-carbonyl}-2,3-dihydro-1H-indene-1,3-dione]
